Our source for the IC50 values is paper PMC7761018, “Green Tea Catechins Induce Inhibition of PTP1B Phosphatase in Breast Cancer Cells with Potent Anti-Cancer Properties: In Vitro Assay, Molecular Docking, and Dynamics Studies” (Antioxidants, 2020).

The target of this assay is T1, PTP1B (Homo sapiens, UniProt P18031).
T1 construct: gene PTPN1
T1 sequence (P18031 1-435): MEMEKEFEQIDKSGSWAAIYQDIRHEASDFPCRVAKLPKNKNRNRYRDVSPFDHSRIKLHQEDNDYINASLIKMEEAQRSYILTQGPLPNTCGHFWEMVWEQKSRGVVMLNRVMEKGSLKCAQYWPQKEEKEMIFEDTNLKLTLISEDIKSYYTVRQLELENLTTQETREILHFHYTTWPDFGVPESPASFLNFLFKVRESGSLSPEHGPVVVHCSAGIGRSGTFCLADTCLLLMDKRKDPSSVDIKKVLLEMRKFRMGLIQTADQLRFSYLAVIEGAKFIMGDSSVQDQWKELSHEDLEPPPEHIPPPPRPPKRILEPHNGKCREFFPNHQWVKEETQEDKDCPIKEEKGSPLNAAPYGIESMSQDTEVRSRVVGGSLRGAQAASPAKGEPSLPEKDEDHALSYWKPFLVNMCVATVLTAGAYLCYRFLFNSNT
Nature of the assay: recombinant PTP1B pNPP hydrolysis assay, absorbance at […] nm. Format: biochemical.

SMILES strings stand for the structures.

Usually IC50 stands for the point on the concentration scale where inhibition reaches its midpoint. Regarding `Oc1cc(O)c2c(c1)O[C@H](c1cc(O)c(O)c(O)c1)[C@H](O)C2` [EGC, epigallocatechin], the IC50 worked out at 104 ± 10.1 µM.
